Data published in patent publication US4759917A, “Oxidative dissolution of gallium arsenide and separation of gallium from arsenic” (priority 1987, dated 1988).
“And” between values parts separate entries of the source, which are not always exact repeats. Equal entries are not always repeated. Structures can show the parent of a compound that is named as a salt. Where two headings read alike, the source gives them in different places.

Key:
[1] = Example 4: oxidizing agents with N-methylnonanohydroxamic acid as complexing agent on gallium arsenide (Table 5)
Description: A series of procedures were conducted to test effectiveness of various complexing agents with hydrogen peroxide to oxidize and effect dissolution of gallium arsenide. A 0.5 gram amount of GaAs powder was added to a 50 ml beaker with 20 ml deionized water. The complexing agent was added with stirring, followed by addition of 5 ml 30% hydrogen peroxide in water with stirring. Stirring was continued for about 10 minutes with gradual heating on a hot plate to 85° C., with observation for reaction. The mixtures were then allowed to stand at room temperature for about four days with observation for further changes, and the percentage of the starting gallium which had dissolved was determined by analysis of the liquid by atomic absorption.
Using the procedure of Example 2 and 3.0 ml of N-methylnonanohydroxamic acid as complexing agent, a number of oxidizing agents were employed with gallium arsenide, with results as reported in Table 5.

[2] = Example 2: complexing agents with hydrogen peroxide to oxidize and dissolve gallium arsenide (Table 3)
[3] = Aqueous solubilities of N-alkylalkano and N-H hydroxamic acids (Table 1); assay type: physicochemical
Description: It is desirable that the N-organo hydroxamic acid have low solubility in water in order to effect ready separation of the chelated gallium from the aqueous oxidizing medium.
For the extraction to occur, it is necessary that the extractant have some slight solubility in the aqueous Ga-containing medium.

[4] = Hydrolysis of hydroxamic acids in gallium extraction, washing and stripping procedures (Table 2); assay type: physicochemical; conditions: hydrolysis after gallium extraction, spectrophotographic analysis
Description: The extent of hydrolysis of some hydroxamic acids used in some gallium extraction, washing and stripping procedures was determined by spectrophotographic analysis of the solution after completion of the procedures, with results as reported in Table 2.
The procedures and further information on the hydrolytic stability of N-alkyl hydroxamic acids are reported in the aforesaid copending application Ser. No. 937,849. The hydrolytic stability of the N-alkyl hydroxamic acids is an advantage for their use in the present invention.

[5] = 3.0 ml N-methylnonanohydroxamic acid as complexing agent
[6] = 0.5 g GaAs, 20 ml water, 5 ml 30% H2O2, heated to 85° C. about 10 min, then about four days at room temp.
[7] = observation during about 10 min stirring with heating to 85° C., H2O2

**Q.** For II, which “Result: time to complete reaction, no heating” value [1, 5] is on record?
**A.** 60 s

**Q.** With CCCCCCCCCc1ccc(O)cc1 [4-nonylphenol] as the compound, how does the “% Ga in Solution After 4 Days” value [2] read?
**A.** 0%

**Q.** And the “Initial Result” value [2]?
**A.** No reaction

**Q.** What does the source list for CC(=O)NO [Acetohydroxamic Acid]?
**A.** Initial Result: time to complete dissolution [2]: 25 min; Initial Result: % reacted in 30 min. ([2]; 0.62 grams, omitted heating, 30 min.): 80%; % Ga in Solution After 4 Days (omitted heating) ([2]; omitted heating, H2O2): 100%

**Q.** With CC(O)(P(=O)(O)O)P(=O)(O)O [Dequest ® 2010] as the compound, how does the “% Ga in Solution After 4 Days” value [2] read?
**A.** 100%

**Q.** And the “effectiveness in reaction and dissolution of gallium arsenide” value (“effectiveness” for short) ([2]; H2O2 as oxidizing agent)?
**A.** works well

**Q.** Which results are given for CCCCC(CC)COP(=O)(O)OCC(CC)CCCC (stereo not shown) [Di-(2-ethylhexyl) phosphoric acid]?
**A.** % Ga in Solution After 4 Days [2]: 0%; Initial Result [2]: No reaction

**Q.** Which results are given for O=P([O-])([O-])O.[Na+].[Na+] [Disbasic Sodium phosphate (Na2 HPO4), Disbasic Sodium phosphate]?
**A.** % Ga in Solution After 4 Days [2]: 100%; effectiveness in reaction and dissolution of gallium arsenide [2]: effective in causing dissolution, but at a slow rate and with some white precipitate formation

**Q.** For O=C(O)CN(CCN(CC(=O)O)CC(=O)O)CC(=O)O [Ethylene diamine tetracetic acid], which “% Ga in Solution After 4 Days” value [2] is on record?
**A.** 84.2%

**Q.** What does the source list for O=P(O)(O)CCP(=O)(O)O [H2 O3 PCH2 CH2 PO3 H2, ethylene diphosphonic acid]?
**A.** effectiveness in reaction and dissolution of gallium arsenide ([2]; H2O2 as oxidizing agent): an insoluble gallium complex may form and precipitate from the aqueous oxidizing medium; Initial Result: time to complete reaction ([2]; heating to 85° C., H2O2): 3 min

**Q.** Which “Result: time to complete reaction” value [1, 5] does the source give for O=[N+]([O-])O [HNO3 conc., nitric acid] here?
**A.** 50 s

**Q.** What about the “Result: time to complete reaction, no complexing agent” value ([1]; no complexing agent) of the same compound?
**A.** 20 min

**Q.** For [K+].[OH-] [KOH, potassium hydroxide], which “Initial Result” value [2] is on record?
**A.** No reaction

**Q.** With C=CC(CC(C)(C)CC(C)(C)C)c1ccc2cccnc2c1O (stereo not shown) [Kelex ® 100] as the compound, how does the “% Ga in Solution After 4 Days” value [2] read?
**A.** 0%

**Q.** With O=P([O-])(O)O.[Na+] [Monobasic sodium phosphate (NaH2 PO4), Monobasic sodium phosphate] as the compound, how does the “% Ga in Solution After 4 Days” value [2, 6] read?
**A.** 0%

**Q.** What about the “Initial Result” value [2, 7] of the same compound?
**A.** No reaction

**Q.** What does the source list for CCCCCCCCCC(CCCCCCCCC)N(O)C(=O)C1CCCCC1 [N-(1-nonyldecyl) cyclohexanohydroxamic acid]?
**A.** Solubility (25° C.) [3]: 0.7 ± 1 ppm; Solubility (25° C.), molarity [3]: 1.7 × 10^-6 molarity

**Q.** For CCCCCCCCCC(=O)N(O)CCCCCC [N--hexyldecanohydroxamic acid], which “Solubility (25° C.)” value [3] is on record?
**A.** 1.6 ± 1 ppm

**Q.** And the “Solubility (25° C.), molarity” value [3]?
**A.** 5.71 × 10^-6 molarity

**Q.** For CCCCCCCCCC(=O)N(O)C(C)C [N--isopropyldecanohydroxamic acid], which “Solubility (25° C.)” value [3] is on record?
**A.** 3.9 ± 1 ppm

**Q.** What about the “Solubility (25° C.), molarity” value [3] of the same compound?
**A.** 1.68 × 10^-5 molarity

**Q.** With CCCCCCCCCC(=O)N(C)O [N--methyldecanohydroxamic acid] as the compound, how does the “Solubility (25° C.)” value [3] read?
**A.** 111. ppm and 82. ppm

**Q.** What does the source list for CCCCCCCCCCCCCCCC(=O)N(C)O [N--methylhexadecanohydroxamic acid]?
**A.** Solubility (25° C.) [3]: 1.3 ± 1 ppm; Solubility (25° C.), molarity [3]: 4.60 × 10^-6 molarity

**Q.** For O.O=P([O-])(O)O.[Na+] [NaH2 PO4.H2 O], which “% Ga in Solution After 4 Days” value [2, 6] is on record?
**A.** 0%

**Q.** And the “Initial Result” value [2, 7]?
**A.** No reaction

**Q.** With [Na+].[OH-] [NaOH, sodium hydroxide] as the compound, how does the “% Ga in Solution After 4 Days” value [2] read?
**A.** 100%

**Q.** What does the source list for CC(=O)N(C)O [Nmethyl acetohydroxamic acid, N-methyl acetohydroxamic acid]?
**A.** Initial Result: time to complete dissolution [2]: 5 min; Initial Result: % reacted in 10 min. ([2]; 0.80 grams, omitted heating, 10 min.): 90%; effectiveness in reaction and dissolution of gallium arsenide ([2]; H2O2 as oxidizing agent): the chelated gallium does not readily separate from the aqueous oxidation medium; % Ga in Solution After 4 Days (omitted heating) ([2]; omitted heating, H2O2): 100%

**Q.** With Oc1cccc2cccnc12 [Oxine (8-hydroxy quinoline), 8-hydroxy quinoline] as the compound, how does the “Initial Result” value [2] read?
**A.** Precipitate

**Q.** For O=S(=O)([O-])OOS(=O)(=O)[O-].[K+].[K+] [Potassium persulfate], which Result [1, 5] is on record?
**A.** No reaction

**Q.** Which “% Ga in Solution After 4 Days” value [2] does the source give for O=P(O)(O)O [Potassium phosphate (K3 PO4), Potassium phosphate] here?
**A.** 100%

**Q.** And the “Initial Result: time to complete reaction (secs)” value [2]?
**A.** 50

**Q.** Which “% Ga in Solution After 4 Days” value [2] does the source give for O=P([O-])([O-])OP(=O)([O-])OP(=O)([O-])[O-].[Na+].[Na+].[Na+].[Na+].[Na+] [Sodium Triphosphate] here?
**A.** 100%

**Q.** Which “% Ga in Solution After 4 Days” value [2] does the source give for O=C(O)CC(O)(CC(=O)O)C(=O)O [Sodium citrate] here?
**A.** 100%

**Q.** For O=C(O)CN(CC(=O)O)CC(=O)O [Sodium nitrilo triacetate], which “% Ga in Solution After 4 Days” value [2] is on record?
**A.** 100%

**Q.** What about the “Initial Result: time to complete reaction” value ([2]; heating to 85° C., H2O2) of the same compound?
**A.** 3 min

**Q.** Which results are given for O=C(O)C(=O)O [Sodium oxalate]?
**A.** % Ga in Solution After 4 Days [2]: 100%; Initial Result: time to complete reaction ([2]; heating to 85° C., H2O2): 1 min; Initial Result [2, 7]: small prec.

**Q.** Which “% Ga in Solution After 4 Days” value [2] does the source give for O=P([O-])([O-])OP(=O)([O-])[O-].[Na+].[Na+].[Na+].[Na+] [Sodium pyrophosphate Na4 P2 O7, Sodium pyrophosphate] here?
**A.** 100%

**Q.** What about the “Initial Result” value [2] of the same compound?
**A.** white prec.

**Q.** And the “Initial Result: time to complete reaction (min)” value [2]?
**A.** 3

**Q.** Which “effectiveness” value ([2]; H2O2 as oxidizing agent) does the source give for CCCCCCCCCCCC(=O)NO [dodecanohydroxamic acid] here?
**A.** reaction did not occur

**Q.** What about the “Initial Result” value [2, 7] of the same compound?
**A.** No reaction

**Q.** What about the “% Ga in Solution After 4 Days (omitted heating)” value ([2]; omitted heating, H2O2) of the same compound?
**A.** 100%

**Q.** What about the “Initial Result: time to complete reaction” value ([2]; with 10 ml 2-ethyl hexanol, omitted heating, H2O2) of the same compound?
**A.** 360 min

**Q.** What about the “Initial Result in 15 min.” value ([2]; with 10 ml 2-ethyl hexanol, omitted heating, mild exotherm, 15 min.) of the same compound?
**A.** Some reaction

**Q.** And the “time for complete reaction” value ([2]; with a solvent (Test ε))?
**A.** about 6 hours

**Q.** Which “Result: time to complete reaction, no heating” value [1, 5] does the source give for BrBr [liquid bromine, bromine] here?
**A.** 37 s

**Q.** Which “Initial Result: % dissolved in 24 hrs.” value ([2]; 1.48 grams, omitted heating, 24 hrs.) does the source give for CCCCCCCC(=O)NO [octanohydroxamic acid] here?
**A.** 52.5%

**Q.** What about the “% Ga in Solution After 4 Days (after addn. of 10 ml n-BuOH)” value ([2]; omitted heating, after addn. of 10 ml n-BuOH, H2O2) of the same compound?
**A.** 100%

**Q.** Which “% Decomposition” value [4] does the source give for “N-ethyl naphthenohydroxamic acid [N--Ethyl naphthenohydroxamic acid]” here?
**A.** -0.53%

**Q.** Which “time to complete dissolution after addition to Test N mixture” value ([2]; 2.98 grams added to Test N mixture after no reaction in 11.5 min.) does the source give for “N-methyl naphthenohydroxamic acid [N--Methyl naphthenohydroxamic acid]” here?
**A.** 60 s

**Q.** And the “effectiveness” value ([2]; H2O2 as oxidizing agent)?
**A.** rapid reaction and dissolution of the gallium arsenide

**Q.** And the “% Decomposition” value [4]?
**A.** +0.14%

**Q.** For “N-n-propyl naphthenohydroxamic acid [N--Propyl naphthenohydroxamic acid]”, which “% Decomposition” value [4] is on record?
**A.** +0.74%

**Q.** For “naphthenohydroxamic acid [N--H naphthenohydroxamic acid, reference compound]”, which “% Decomposition” value [4] is on record?
**A.** 45.0%

**Q.** For neotridecanohydroxamic acid, which “Solubility (25° C.)” value [3] is on record?
**A.** 328. ppm

**Q.** What about the “Solubility (25° C.), molarity” value [3] of the same compound?
**A.** 1.43 × 10^-3 molarity

**Q.** Which results are given for “versatohydroxamic acid [versatohydroxamic acid (not N--alkyl), reference compound]”?
**A.** Solubility (25° C.) [3]: 1600. ppm; Solubility (25° C.), molarity [3]: 8.54 × 10^-3 molarity
